Earlier results in patent US11185540B2, “Extended release compositions of opioid antagonists and phosphodiesterase 5 inhibitors” (Pardon My Scotch, LLC, priority 2017, dated 2021).

How the values were obtained:
[1] = tested on: PDE6
[2] = molecular target: PDE9 (Homo sapiens, UniProt O76083)
[3] = in vivo
[4] = molecular target: PDE5 (Homo sapiens, UniProt O76074)

PDE9, sequence (O76083 whole entry): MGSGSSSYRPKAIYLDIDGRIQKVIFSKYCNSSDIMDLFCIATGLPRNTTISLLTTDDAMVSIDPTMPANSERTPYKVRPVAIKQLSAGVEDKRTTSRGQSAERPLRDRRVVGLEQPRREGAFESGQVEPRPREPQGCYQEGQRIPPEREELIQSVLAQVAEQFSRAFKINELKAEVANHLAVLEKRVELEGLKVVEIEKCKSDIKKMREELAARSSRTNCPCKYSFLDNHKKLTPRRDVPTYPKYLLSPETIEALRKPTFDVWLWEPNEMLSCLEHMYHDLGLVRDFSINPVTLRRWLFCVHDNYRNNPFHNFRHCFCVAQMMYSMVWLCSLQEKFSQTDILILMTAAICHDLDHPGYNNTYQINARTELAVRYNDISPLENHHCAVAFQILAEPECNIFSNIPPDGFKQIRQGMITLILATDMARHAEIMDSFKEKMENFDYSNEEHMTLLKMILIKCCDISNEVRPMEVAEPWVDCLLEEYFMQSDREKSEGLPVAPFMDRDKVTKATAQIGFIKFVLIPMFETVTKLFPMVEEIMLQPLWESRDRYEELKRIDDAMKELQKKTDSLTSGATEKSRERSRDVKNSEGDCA

In the case of CCCc1nn(C)c2c(=O)[nH]c(-c3cc(S(=O)(=O)N4CCN(C)CC4)ccc3OCC)nc12 [sildenafil], the “Inhibition of PDE6” value [1] is given as “inhibit”, the “Inhibition of PDE9” value [2] is given as “inhibit” and the Plasma half-life [3] is given as 5 to 7 h.
In the case of CN1CC(=O)N2[C@H](c3ccc4c(c3)OCO4)c3[nH]c4ccccc4c3C[C@@H]2C1=O [tadalafil, pyrazino[1′,2′:1,6]pyrido[3,4-b]indole-1,4-dione, 6-(1,3-benzodioxol-5-yl)-2,3,6,7,12,12a-hexahydro-2-methyl-, (6R,12aR)-], the “Inhibition of PDE5” value [4] is listed as “inhibit”.
For CCCc1nc(C)c2c(=O)[nH]c(-c3cc(S(=O)(=O)N4CCN(CC)CC4)ccc3OCC)nn12 [vardenafil], the Plasma half-life [3] is listed as 5 to 7 h.
